In test [1] the target is T1, CLK4 (Cdc-like kinase 4; Cdc2-like kinase 4) (Homo sapiens, UniProt Q9HAZ1). As to the kind of experiment: LanthaScreen Eu kinase binding assay (FRET). The text has this: (§1) LanthaScreen Eu kinase binding assay (FRET) on CLK4 (Cdc-like kinase 4; Cdc2-like kinase 4)
(In TR-FRET formats the signal depends on donor and acceptor labels being close together.)

For test [2], the target named is T1, CLK4 (Cdc-like kinase 4; Cdc2-like kinase 4). As to the kind of experiment: LanthaScreen Eu kinase binding assay (FRET). It is filed as biochemical.
Source text: as §1

For test [3] the target is unchanged. As to the kind of experiment: biochemical. More on the design: Thermo Fisher SelectScreen kinase assays (LanthaScreen Eu binding, Adapta or Z'LYTE), per cent inhibition. How it is done: (§2) Enzyme‐based assays were carried out by Thermo Fisher Scientific (Waltham, MA, USA). Thermo Fisher Scientific utilizes LanthaScreen Eu Kinase Binding Assay Technology (www.thermofisher.com/lanthascreen), which is based on fluorescence resonance energy transfer (FRET), to conduct the kinase activity assays. Fluorescent receptor dyes are conjugated to the kinase, and an Eu‐labeled anti‐tag antibody is added to detect the phosphorylated fluorescein‐labeled substrate. The fluorescence‐labeled kinase, antibody, and test compounds are combined in an appropriate buffer solution. After incubation, the mixture is placed in a fluorescent plate reader capable of detecting FRET signals. FRET efficiency is calculated by comparing the ratio of the acceptor emission to the donor emission. The selected compounds were evaluated at specified concentrations, and IC50 values were determined using GraphPad Prism software (La Jolla, CA, USA). Each enzymatic activity assay was performed in duplicate, following the quality control guidelines of Thermo Fisher Scientific. Kinase profiling was carried out using the SelectScreen kinase profiling service provided by Thermo Fisher Scientific, with supplementary assays such as Adapta and Z'LYTE included when available for the respective kinases. The detailed protocols are available at the following links: www.thermofisher.com/adapta and https://www.thermofisher.com/z‐lyte. Selectivity is essential for kinase inhibitors to minimize off‐target effects and reduce adverse reactions. Selective inhibitors also enable researchers to better understand the specific functions of targets like CLK4 in physiological and pathological pathways. Therefore, we further evaluated the selectivity of compound 150441 using kinase profiling analysis. The compound was tested at a concentration of 30 nM against a panel of 60 kinases from various families using Thermo Fisher SelectScreen kinase profiling services (Figure 7 ). […] In addition, CLKs comprise four isoforms: CLK1, CLK2, CLK3, and CLK4.

For test [4], the target named is T2, CLK3 (Homo sapiens, UniProt P49761).
T2 construct: Thermo Fisher SelectScreen panel kinase
Briefly: biochemical. Also on record: Thermo Fisher SelectScreen kinase assays (LanthaScreen Eu binding, Adapta or Z'LYTE), per cent inhibition. How it is done: as §2

Test [5] has as its target T3, CLK2 (Homo sapiens, UniProt P49760).
T3 construct: Thermo Fisher SelectScreen panel kinase
As to the kind of experiment: biochemical. More on the design: Thermo Fisher SelectScreen kinase assays (LanthaScreen Eu binding, Adapta or Z'LYTE), per cent inhibition. On the procedure: as §2

Test [6] concerns the target T4, CLK1 (Homo sapiens, UniProt P49759).
T4 construct: Thermo Fisher SelectScreen panel kinase
Briefly: biochemical. Also on record: Thermo Fisher SelectScreen kinase assays (LanthaScreen Eu binding, Adapta or Z'LYTE), per cent inhibition. How it is done: as §2

Test [7] has as its target T3, CLK2. As to the kind of experiment: SelectScreen kinase profiling (assay format per kinase not given). The following applies: read-out: % inhibition at 30 nM. It counts as biochemical.
Test [8] deals with T4, CLK1. The test is described as above. It is filed as biochemical. The following applies: read-out: % inhibition at 30 nM.
Test [9] addresses T2, CLK3. Described as above. It counts as biochemical. The conditions noted are these: read-out: % inhibition at 30 nM.

Molecules are shown by their SMILES.

T3 sequence (P49760 whole entry): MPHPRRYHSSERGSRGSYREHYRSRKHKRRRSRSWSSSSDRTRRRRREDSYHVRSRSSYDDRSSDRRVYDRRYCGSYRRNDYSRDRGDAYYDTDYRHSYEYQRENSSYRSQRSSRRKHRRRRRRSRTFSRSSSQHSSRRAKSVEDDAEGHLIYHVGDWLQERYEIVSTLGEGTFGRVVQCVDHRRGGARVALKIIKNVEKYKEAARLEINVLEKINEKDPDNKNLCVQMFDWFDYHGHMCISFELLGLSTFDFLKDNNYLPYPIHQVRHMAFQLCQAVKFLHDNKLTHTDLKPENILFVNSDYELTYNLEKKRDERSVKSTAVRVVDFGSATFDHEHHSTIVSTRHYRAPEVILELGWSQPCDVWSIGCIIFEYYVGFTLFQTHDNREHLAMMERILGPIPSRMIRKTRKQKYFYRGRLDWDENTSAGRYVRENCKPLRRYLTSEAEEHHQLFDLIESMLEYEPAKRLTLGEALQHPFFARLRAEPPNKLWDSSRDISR
T1 sequence (Q9HAZ1 whole entry): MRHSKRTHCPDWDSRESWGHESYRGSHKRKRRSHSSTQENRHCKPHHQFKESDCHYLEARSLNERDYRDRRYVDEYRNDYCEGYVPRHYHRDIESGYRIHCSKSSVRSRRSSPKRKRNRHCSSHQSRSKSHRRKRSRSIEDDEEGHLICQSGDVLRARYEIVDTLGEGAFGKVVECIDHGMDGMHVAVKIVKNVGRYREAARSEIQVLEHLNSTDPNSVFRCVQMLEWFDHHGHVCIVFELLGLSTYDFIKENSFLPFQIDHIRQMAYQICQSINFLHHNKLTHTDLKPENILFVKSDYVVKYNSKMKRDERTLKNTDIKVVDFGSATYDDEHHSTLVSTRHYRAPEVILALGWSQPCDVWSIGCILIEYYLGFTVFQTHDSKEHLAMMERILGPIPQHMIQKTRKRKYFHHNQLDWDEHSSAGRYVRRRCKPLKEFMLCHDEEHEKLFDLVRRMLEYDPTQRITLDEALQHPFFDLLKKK
T4 sequence (P49759 whole entry): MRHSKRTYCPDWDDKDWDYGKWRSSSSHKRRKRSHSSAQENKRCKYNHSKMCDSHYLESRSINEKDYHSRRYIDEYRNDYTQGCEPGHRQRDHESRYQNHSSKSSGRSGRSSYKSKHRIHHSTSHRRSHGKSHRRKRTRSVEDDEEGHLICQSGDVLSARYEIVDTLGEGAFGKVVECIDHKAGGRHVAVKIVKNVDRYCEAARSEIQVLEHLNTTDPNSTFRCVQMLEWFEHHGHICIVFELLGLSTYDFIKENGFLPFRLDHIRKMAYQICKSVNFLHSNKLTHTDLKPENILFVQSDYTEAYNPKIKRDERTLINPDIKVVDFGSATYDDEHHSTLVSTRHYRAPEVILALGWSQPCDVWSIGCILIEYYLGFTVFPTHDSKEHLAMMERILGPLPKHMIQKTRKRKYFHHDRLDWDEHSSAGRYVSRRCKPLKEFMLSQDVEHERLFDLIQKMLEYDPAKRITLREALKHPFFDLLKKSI
T2 sequence (P49761 whole entry): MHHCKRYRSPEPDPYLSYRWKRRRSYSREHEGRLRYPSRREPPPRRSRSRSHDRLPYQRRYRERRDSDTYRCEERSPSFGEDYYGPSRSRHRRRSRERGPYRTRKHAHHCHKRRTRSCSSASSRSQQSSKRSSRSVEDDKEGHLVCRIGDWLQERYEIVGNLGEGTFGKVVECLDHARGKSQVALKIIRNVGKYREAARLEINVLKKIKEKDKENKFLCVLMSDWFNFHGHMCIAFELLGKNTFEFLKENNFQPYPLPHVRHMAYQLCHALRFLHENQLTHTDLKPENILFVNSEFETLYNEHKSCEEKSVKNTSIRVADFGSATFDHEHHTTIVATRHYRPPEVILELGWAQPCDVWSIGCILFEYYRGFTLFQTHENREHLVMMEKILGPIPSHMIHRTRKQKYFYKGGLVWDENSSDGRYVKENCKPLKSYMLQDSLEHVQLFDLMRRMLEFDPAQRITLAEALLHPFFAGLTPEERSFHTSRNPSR

Usually IC50 stands for the point on the concentration scale where inhibition reaches its midpoint. For `Cc1c2cnccc2c(C)c2c1c1ccccc1n2Cc1ccccc1` [compound 322087, 322087], in test [1], the IC50 came out at 0.121 µM.
Usually inhibition stands for the relative decrease from the control value, in per cent. Consider `COc1ccc2[nH]c3c(C)c4cc[n+]([O-])cc4c(C)c3c2c1` [compound 237069, 237069], for which 1 µM produced 47% inhibition in [2].
In the case of `COc1ccc2c(c1)c1c(C)c3cnccc3c(C)c1n2CC1CO1` (centres unmarked) [compound 150836, 150836], the IC50 in [1] was found to be 0.101 µM.
Consider `Cc1c2cnccc2c(C)c2c1c1ccccc1n2CC1CO1` (centres unmarked) [compound 152731, 152731], for which the IC50 in test [1] was 0.0382 µM. For the same compound, the inhibition at 1 µM in test [3] was found to be 98%; on CLK3 [4], 4%; at CLK2 [5] it was 81%; on CLK1 [6], 86%.
In test [2], `Cc1c2c(C(N)=O)nccc2c(C)c2c1c1ccccc1n2Cc1ccccc1` [compound 320613, 320613] showed an inhibition at 1 µM of 3%.
Compound `COc1ccc2[nH]c3c(C)c4ccncc4c(C)c3c2c1` [compound 69187, 69187] displayed an IC50 in test [1] of 0.0988 µM.
In test [1], `Cc1c2cnccc2c(C)c2c1c1ccccc1n2CCNCc1ccccc1` [compound 164016, 164016] came in with an IC50 of 0.0348 µM. In addition, the inhibition at 1 µM is 95% in test [3], 7% on CLK3 [4], 69% on CLK2 [5] and 65% on CLK1 [6].
Regarding `Cc1c2cnccc2c(C)c2c1c1ccccc1n2CCN(C)C` [compound 150441, 150441], in test [1], the IC50 turned out to be 0.0214 µM. Besides, the results for the inhibition at 0.03 µM at CLK2 [7], on CLK1 [8] and on CLK3 [9] were 9.1%, 7% and 1.8%, respectively. Moreover, the inhibition at 1 µM worked out at 98% in test [3], 6% at CLK3 [4], 62% at CLK2 [5] and 75% on CLK1 [6].

(Values after publication PMC12097107, “Identification and Biological Evaluation of a Novel CLK4 Inhibitor Targeting Alternative Splicing in Pancreatic Cancer Using Structure‐Based Virtual Screening” (Advanced Science, 2025).)
